Measured values taken from publication PMC10354048 (Communications Chemistry, 2023).
In brackets after ≈: the same amount, converted by molar mass. Where no end group is shown, it is not given here. [ ]: non-standard residue; d: D form. Trp(1-Me) = Cn1cc(C[C@H](N)C(=O)O)c2ccccc21

Legend:
Experiment in all cases: microbe, parasite or virus in culture
E. faecalis CW133003 = settings: for Minimum inhibitory concentration E. faecalis CW133003: broth microdilution per CSLI guidelines, Brain Heart Infusion broth, 5 × 10^5 CFU/mL, 37 °C, 20 h, range 64–0.125 µg/mL, average of three repeat assays
Method: (§1) Minimum inhibitory concentrations, determined by broth microdilution, are expressed as an average of three repeat assays. […] [a] MIC values expressed in μg/mL, [b] AC: American Type Culture Collection strain, [c] CW: CANWARD collection clinical isolate strain.33.
(§2) Minimum Inhibitory Concentrations (MIC) were determined for each of the bacteriocins and controls using a broth microdilution method, as per CSLI guidelines for microbial susceptibility testing. The peptides were dissolved in sterile deionized water to prepare the working stocks, with concentrations determined by UV absorbance at 280 nm[56]. Overnight cultures from the strains of interest were incubated with shaking overnight at 37 °C. Cation-adjusted Mueller Hinton Broth 2 (MHB 2) was used for the S. aureus, and S. epidermidis strains and Brain Heart Infusion (BHI) broth was utilized for the E. faecalis and E. faecium strains. The cultures were prepared and diluted to the turbidity of a 0.5 McFarland standard using MHB or BHI fresh media. Increasing concentrations of the leaderless bacteriocins were added to a 96-well polypropylene plate. The range tested for each bacteriocin was 64–0.125 µg/mL. The bacterial culture was further diluted and mixed in a 1:1 ratio with the bacteriocin solution to yield a final concentration in the wells of 5 × 10^5 CFU/mL. […] A 1:1000 dilution of the growth control was prepared in the respective media and plated onto agar (100 μL) to ensure the correct inoculum concentration (5 × 10^5 CFU/mL indicated by ≈ 50 bacterial colonies). The 96-well and agar plates were incubated at 37 °C, and growth was assessed by the formation of a pellet observable with the naked eye after 20 h. […] Each assay was performed in triplicate.
(§3) Materials and instruments […]
(§4) Minimum Inhibitory Concentration (MIC)
(§5) assays were conducted in 96-Well Clear polypropylene corner notch microplates (Corning, #11313595). For the […]

S. aureus AC29213 = settings: for Minimum inhibitory concentration S. aureus AC29213: broth microdilution per CSLI guidelines, cation-adjusted Mueller Hinton Broth 2, 5 × 10^5 CFU/mL, 37 °C, 20 h, range 64–0.125 µg/mL, average of three repeat assays; for MIC: Staphylococcus aureus, AC29213, 20 h, read-out: Minimum inhibitory concentration S. aureus AC29213
Method: as §1, §2, §3, §4, §5

S. aureus CW113379 = settings: for Minimum inhibitory concentration S. aureus CW113379: broth microdilution per CSLI guidelines, cation-adjusted Mueller Hinton Broth 2, 5 × 10^5 CFU/mL, 37 °C, 20 h, range 64–0.125 µg/mL, average of three repeat assays; for MIC: Staphylococcus aureus, CW113379, 20 h, read-out: Minimum inhibitory concentration S. aureus CW113379
Method: as §1, §2, §3, §4, §5

S. aureus CW114125 = settings: for Minimum inhibitory concentration S. aureus CW114125: broth microdilution per CSLI guidelines, cation-adjusted Mueller Hinton Broth 2, 5 × 10^5 CFU/mL, 37 °C, 20 h, range 64–0.125 µg/mL, average of three repeat assays; for MIC: Staphylococcus aureus, CW114125, 20 h, read-out: Minimum inhibitory concentration S. aureus CW114125
Method: as §1, §2, §3, §4, §5

S. aureus CW115852 = settings: for Minimum inhibitory concentration S. aureus CW115852: broth microdilution per CSLI guidelines, cation-adjusted Mueller Hinton Broth 2, 5 × 10^5 CFU/mL, 37 °C, 20 h, range 64–0.125 µg/mL, average of three repeat assays; for MIC: Staphylococcus aureus, CW115852, 20 h, read-out: Minimum inhibitory concentration S. aureus CW115852
Method: as §1, §2, §3, §4, §5

S. epidermidis CW131612 = settings: for Minimum inhibitory concentration S. epidermidis CW131612: broth microdilution per CSLI guidelines, cation-adjusted Mueller Hinton Broth 2, 5 × 10^5 CFU/mL, 37 °C, 20 h, range 64–0.125 µg/mL, average of three repeat assays; for MIC: Staphylococcus epidermidis, CW131612, 20 h, read-out: Minimum inhibitory concentration S. epidermidis CW131612
Method: as §1, §2, §3, §4, §5

E. faecalis CW133346 = settings: for Minimum inhibitory concentration E. faecalis CW133346: broth microdilution per CSLI guidelines, Brain Heart Infusion broth, 5 × 10^5 CFU/mL, 37 °C, 20 h, range 64–0.125 µg/mL, triplicate
Method: as §2, §3
(§6) Minimum Inhibitory Concentration (MIC) assays were conducted in 96-Well Clear polypropylene corner notch microplates (Corning, #11313595). For the assay media, cation adjusted Mueller Hinton Broth 2 (Sigma Aldrich, #90922) was used for the S. aureus, and S. epidermidis strains and Brain Heart Infusion broth (BD, #221812) was used for the E. faecalis and E. faecium […]
(§7) used, as well as melittin prepared by automated SPPS. Experimental bacterial strains used were procured from the American Type Culture collection (S. aureus 29213) and the Canadian Antimicrobial Resistance Alliance

E. faecium CW130826 = settings: for Minimum inhibitory concentration E. faecium CW130826: broth microdilution per CSLI guidelines, Brain Heart Infusion broth, 5 × 10^5 CFU/mL, 37 °C, 20 h, range 64–0.125 µg/mL, triplicate
Method: as §2, §3, §6, §7

E. faecium CW131126 = settings: for Minimum inhibitory concentration E. faecium CW131126: broth microdilution per CSLI guidelines, Brain Heart Infusion broth, 5 × 10^5 CFU/mL, 37 °C, 20 h, range 64–0.125 µg/mL, triplicate
Method: as §2, §3, §6, §7

S. epidermidis CW130500 = settings: for Minimum inhibitory concentration S. epidermidis CW130500: broth microdilution per CSLI guidelines, cation-adjusted Mueller Hinton Broth 2, 5 × 10^5 CFU/mL, 37 °C, 20 h, range 64–0.125 µg/mL, triplicate; for MIC: Staphylococcus epidermidis, CW130500, 20 h, read-out: Minimum inhibitory concentration S. epidermidis CW130500
Method: as §2, §3, §6, §7

| Molecule | Minimum inhibitory concentration E. faecalis CW133003 (E. faecalis CW133003) [µg/mL] | Minimum inhibitory concentration S. aureus AC29213 (S. aureus AC29213) [µg/mL] | Minimum inhibitory concentration S. aureus CW113379 (S. aureus CW113379) [µg/mL] | Minimum inhibitory concentration S. aureus CW114125 (S. aureus CW114125) [µg/mL] | Minimum inhibitory concentration S. aureus CW115852 (S. aureus CW115852) [µg/mL] | Minimum inhibitory concentration S. epidermidis CW131612 (S. epidermidis CW131612) [µg/mL] | Minimum inhibitory concentration E. faecalis CW133346 (E. faecalis CW133346) [µg/mL] | Minimum inhibitory concentration E. faecium CW130826 (E. faecium CW130826) [µg/mL] | Minimum inhibitory concentration E. faecium CW131126 (E. faecium CW131126) [µg/mL] | Minimum inhibitory concentration S. epidermidis CW130500 (S. epidermidis CW130500) [µg/mL] | MIC (E. faecalis CW133003; Enterococcus faecalis, CW133003, 20 h, read-out: Minimum inhibitory concentration E. faecalis CW133003) [µg/mL] | MIC (S. aureus AC29213) [µg/mL] | MIC (S. aureus CW113379) [µg/mL] | MIC (S. aureus CW114125) [µg/mL] | MIC (S. aureus CW115852) [µg/mL] | MIC (S. epidermidis CW131612) [µg/mL] | MIC (E. faecalis CW133346; Enterococcus faecalis, CW133346, 20 h, read-out: Minimum inhibitory concentration E. faecalis CW133346) [µg/mL] | MIC (E. faecium CW130826; Enterococcus faecium, CW130826, 20 h, read-out: Minimum inhibitory concentration E. faecium CW130826) [µg/mL] | MIC (E. faecium CW131126; Enterococcus faecium, CW131126, 20 h, read-out: Minimum inhibitory concentration E. faecium CW131126) [µg/mL] | MIC (S. epidermidis CW130500) [µg/mL] |
| --- | --- | --- | --- | --- | --- | --- | --- | --- | --- | --- | --- | --- | --- | --- | --- | --- | --- | --- | --- | --- |
| MSLLNFLKYIAKYGKKAVSAAWKYKGKVLEWLNVGPTLEWVWQKLKKIAGL-NH2 [L-W3L, L-aureocin A53 W3L (Met^1-Leu^51)] | 16 | 4 | 4 | 4 | 32 | 4 | 4 | 2 | 4 | 4 |  |  |  |  |  |  |  |  |  |  |
| MAGFLKVVQLLAKYGSKAVQWAWANKGKILDLLNAGQAIDWVVSKIKQILGIK-NH2 (C-terminus assumed) [L-W32L, L-lacticin Q W32L (Met^1-Lys^53)] | 4 | 64 | 32 | 64 | 32 | 16 | 4 | 2 | 4 | 16 |  |  |  |  |  |  |  |  |  |  |
| MAGFLKVVQLLAKYGSKAVQWALANKGKILDWLNAGQAIDWVVSKIKQILGIK-NH2 [L-W23L, L-lacticin Q W23L (Met^1-Lys^53)] | 4 | 32 | 64 | > 64 | 64 | 32 | 8 |  | 4 |  |  |  |  |  |  |  |  |  |  |  |
| MSWLNFLKYIAKYGKKAVSAALKYKGKVLEWLNVGPTLEWVWQKLKKIAGL-NH2 [L-W22L, L-aureocin A53 W22L (Met^1-Leu^51)] | 16 | 2 | 16 | 8 | 16 | 4 | 4 | 2 | 4 | 8 |  |  |  |  |  |  |  |  |  |  |
| CN(C)[C@@H]1C(O)=C(C(N)=O)C(=O)[C@@]2(O)C(O)=C3C(=O)c4c(O)cccc4[C@@](C)(O)[C@H]3C[C@@H]12 [Tetracycline, tetracycline, reference compound] |  |  |  |  |  |  |  |  |  |  | 1 (≈ 2.25 µM) | < 0.125 | 16 (≈ 36 µM) | 32 (≈ 72 µM) | 8 (≈ 18 µM) | 1 (≈ 2.25 µM) | 64 (≈ 144 µM) | 0.25 (≈ 0.563 µM) | > 64 | < 0.125 |
| MS[Trp(1-Me)]LNFLKYIAKYGKKAVSAAWKYKGKVLEWLNVGPTLEWVWQKLKKIAGL-NH2 [L-^1MeW3, L-aureocin A53 ^1MeTrp3 (Met^1-Leu^51)] | 2 | 4 | 4 | 4 | 8 | 8 | 1 | 2 | 2 | 4 |  |  |  |  |  |  |  |  |  |  |
| [dM][dS][dW][dL][dN][dF][dL][dK][dY][dI][dA][dK][dY]G[dK][dK][dA][dV][dS][dA][dA][dW][dK][dY][dK]G[dK][dV][dL][dE][dW][dL][dN][dV]G[dP][dT][dL][dE][dW][dV][dW][dQ][dK][dL][dK][dK][dI][dA]G[dL]-NH2 [D-AucA, D-aureocin A53 (Met^1-Leu^51)] | 4 | 4 | 4 | 4 | 2 | 4 | 4 | 2 | 4 | 4 |  |  |  |  |  |  |  |  |  |  |
| MAGFLKVVQLLAKYGSKAVQWAWANKGKILDWLNAGQAIDLVVSKIKQILGIK-NH2 (C-terminus assumed) [L-W41L, L-lacticin Q W41L (Met^1-Lys^53)] | 64 | > 64 | > 64 | > 64 | > 64 | > 64 |  |  | 8 |  |  |  |  |  |  |  |  |  |  |  |
| [dM][dA]G[dF][dL][dK][dV][dV][dQ][dL][dL][dA][dK][dY]G[dS][dK][dA][dV][dQ][dW][dA][dW][dA][dN][dK]G[dK][dI][dL][dD][dW][dL][dN][dA]G[dQ][dA][dI][dD][dW][dV][dV][dS][dK][dI][dK][dQ][dI][dL]G[dI][dK]-NH2 [D-LnqQ, D-lacticin Q (Met^1-Lys^53)] | 2 | 4 | 4 | 8 | 4 | 4 | 2 | 2 | 2 | 4 |  |  |  |  |  |  |  |  |  |  |
| CC1(C)S[C@@H]2[C@H](NC(=O)[C@H](N)c3ccccc3)C(=O)N2[C@H]1C(=O)O [Ampicillin, ampicillin, reference compound] |  |  |  |  |  |  |  |  |  |  |  | 2 (≈ 5.72 µM) | 32 (≈ 91.6 µM) | 16 (≈ 45.8 µM) | 4 (≈ 11.4 µM) | > 64 |  |  |  | 8 (≈ 22.9 µM) |
| MAGFLKVVQLLAKYGSKAVQLAWANKGKILDWLNAGQAIDWVVSKIKQILGIK-NH2 [L-W21L, L-lacticin Q W21L (Met^1-Lys^53)] | 8 | 16 | 16 | 32 | 32 | 16 | 4 | 4 | 4 | 16 |  |  |  |  |  |  |  |  |  |  |
